Measured values from paper PMC5844890 (Scientific Reports, 2018).

Key:
MDA-MB-231 cells [1] = experiment: Anti-proliferative activity, MDA-MB-231 breast carcinoma cells (Coulter counting); type: cell-based; conditions: Homo sapiens, MDA-MB-231, 72 h; mean ± SD of three independent experiments; 3 days of incubation; read-out: Tumor cells IC50 MDA-MB-231
Text: (§1) The anti-proliferative activity of the synthesized benzofurane derivatives was studied in three human cancer cell lines [breast carcinoma (MDA-MB-231), lymphoblastic leukemia (CEM) and cervical carcinoma (HeLa) cells] and one endothelial cell line [human microvascular endothelial cells (HMEC-1)].
(§2) The human microvascular endothelial cell line HMEC-1 was obtained at passage 12 from the Centers for Disease Control and Prevention (Atlanta, GA, USA) and used from passage 17 till 27. Human breast carcinoma (MDA-MB-231), human cervical carcinoma (HeLa) and human T-lymphoid (CEM) cells were obtained from ATCC (Middlesex, UK). Cell lines were maintained in culture for up to 3 months and grown in DMEM, supplemented with 10% FBS, 0.01 M Hepes and 1 mM sodium pyruvate. All cells were cultured in a humidified 5% CO2 incubator at 37 °C.
(§3) HMEC-1 cells were seeded in 48-well plates at 20,000 cells/well. After 24 h, 5-fold dilutions of the compounds were added. The cells were allowed to proliferate 4 days in the presence of the compounds, trypsinized, and counted by means of a Coulter counter (Analis, Belgium). HeLa and MDA-MB-231 cells were seeded in 48-well plates at 10,000 cells/well. After 24 h, different concentrations of the compounds were added. After 3 days of incubation, the cells were trypsinized and counted in a Coulter counter. Suspension cells (human lymphoid Cem cells) were seeded in 96-well plates at 60,000 cells/well in the presence of different concentrations of the compounds, allowed to proliferate for 96 h, and counted in a Coulter counter. The 50% inhibitory concentration (IC50) was defined as the compound concentration required to reduce cell proliferation by 50%.

CEM cells = experiment: Anti-proliferative activity, CEM lymphoblastic leukemia cells (Coulter counting); type: cell-based; conditions: Homo sapiens, CCRF-CEM; mean ± SD of three independent experiments; 96 h; read-out: Tumor cells IC50 CEM
Text: as §1, §2, §3

HeLa cells = experiment: Anti-proliferative activity, HeLa cervical carcinoma cells (Coulter counting); type: cell-based; conditions: Homo sapiens, 72 h, mean ± SD of three independent experiments, 3 days of incubation, read-out: Tumor cells IC50 HeLa
Text: as §1, §2, §3

A2780AD cells = experiment: Anti-proliferative activity, A2780AD (MDR overexpressing P-glycoprotein) ovarian carcinoma cells; type: cell-based, human; conditions: Homo sapiens, A2780AD; P-glycoprotein overexpressing resistant line; mean ± standard error of three independent experiments; read-out: A2780 AD IC50
Text: One of the most relevant causes of tumor resistance to chemotherapy is the overexpression of membrane pumps which remove the chemotherapeutic agents from the treated cells.

MDA-MB-231 cells [2] = experiment: Caspase-3 activity / apoptosis in live cells (fluorescence microscopy); type: cell-based, human; conditions: 1 µM, after 24 h
Description: (§4) Figure 6 Mechanism of action of the benzofurane derivatives. (A) Inhibition of cell cycle progression. MDA-MB-231 cells were treated with DMSO (control) or compounds 8, 27 or 28 for 24 h. Next, the cells were harvested, stained with propidium iodide (PI), and cell cycle distribution was evaluated by flow cytometry. Percentages of cells in the different phases of the cell cycle are indicated. (B) Caspase-3 activity. MDA-MB-231 cells were seeded in 48-well plates at 40,000 cells/cm². After 24 h, different concentrations of compounds 8, 27 or 28 and 2 µM of the caspase-3 substrate DEVD-NucView488 were added. After 16 h, the cells were incubated with 2 µg/ml Hoechst 33342 to stain the nucleus, and imaged. (C) Disruption of the vascular network. HMEC-1 cells were cultured on matrigel for 3 h to allow the formation of tube-like structures. Next, different concentrations of compounds were added. Upper panel: After 90 min, pictures were taken and the tubular network was scored (3: intact network, 0: network completely destroyed). Bars show average ± SEM (n = 4). Lower panel: Microscopic pictures of the tubular network 3 h after addition of compound.
To confirm the capacity of compounds 27 and 28 to induce apoptosis, MDA-MB-231 cells were treated with the compounds for 24 h in the presence of NucView® 530 Caspase-3. This substrate is cleaved by active caspase-3 activity (the main executioner enzyme during apoptosis) to generate a fluorescent derivative that is analyzed using fluorescence microscopy.
MDA-MB-231 cells were seeded at 40,000 cells/cm². After 24 h, cells were incubated in Fluorobrite DMEM (Gibco), containing the compound and 2 µM of the caspase-3 substrate DEVD-NucView488 (Biotium, Hayward, CA). After 16 h, the DNA was stained with Hoechst33342 and the cells were imaged by fluorescence microscopy.

HMEC-1 cells [3] = experiment: Disruption of a preformed vascular network on matrigel (tube formation); type: cell-based, human
Description: as §4
Another feature of colchicine-site binding agents is their ability to destroy a 3-dimensional network of endothelial cells. To determine the vascular disrupting capacity of compounds 27 and 28, HMEC-1 cells were seeded on top of matrigel. This tumor derived extracellular matrix induces within 3 h the rearrangement of endothelial cells into a vascular network. Compounds 27 and 28 caused a disruption of the tubular network in a concentration-dependent manner (Fig. 6C).
Wells of a 96-well plate were coated with 70 µl matrigel (10 mg/ml, BD Biosciences, Heidelberg, Germany) at 4 °C. After gelatinization at 37 °C during 30 min, HMEC-1 cells were seeded at 60,000 cells/well on top of the matrigel in 200 µl DMEM containing 10% FCS. After 3 h of incubation at 37 °C, when the endothelial cells had reorganized to form tube-like structures, the compounds were added. Ninety minutes later, the cultures were photographed at 100 × magnification and analyzed using digitalized analysis.

HMEC-1 cells [4] = experiment: IncuCyte scratch wound migration assay with PI uptake; type: cell-based; conditions: for uptake of PI (toxicity): at the lowest concentration inhibiting wound closure (0.5, 0.06 and 0.06 µM)
Description: Proper tubulin organization is not only required for cell division but also for cell motility and migration. Therefore, we evaluated the capacity of the compounds to inhibit the migration of HMEC-1 endothelial cells. To this end, we used the 96-well IncuCyte® scratch wound assay. After the creation of a cell-free zone (wound) in a confluent cell monolayer, compounds were added, and relative wound density was measured every minute and visualized in time-course plots. PI was added to all wells to visualize toxicity over time, i.e. only dead cells take up this cell-impermeable dye.
Figure 7 Inhibition of HMEC-1 migration. The 96-well IncuCyte® scratch wound assay was used to create a cell-free zone (wound) in a confluent cell monolayer. Next, compounds were added and the relative wound density was measured every minute and visualized in time-course plots (left panels). PI is added to all wells to visualize toxicity over time, i.e. only dead cells take up this cell-impermeable dye (right panels). Average ± SEM (n = 3) are shown.
Wounds were created in confluent HMEC-1 cells by means of the “Incucyte® wound maker”. Next, different concentrations of compound and PI were added and images were taken every 2 min for the duration of the experiment. The algorithm masks each phase-contrast image to identify the position of the wounded (cell-free) and unwounded (cell-occupied) zones. Relative wound density is calculated and visualized in time-course plots.

In the case of `COCc1cc2cccc(NC(C)=C3C(=O)CC(c4ccccc4)CC3=O)c2o1` (stereo not drawn) [Compound 27, 2-(1-((2-(Methoxymethyl)benzofuran-7-yl)amino)ethylidene)-5-phenylcyclohexane-1,3-dione], the IC50 (MDA-MB-231 cells [1]) is reported as 9 ± 1 nM, the IC50 (CEM cells) is reported as 31 ± 2 nM and the IC50 (HeLa cells) is reported as 30 ± 2 nM. For the same molecule, the IC50 (A2780AD cells) was 39 ± 15 nM, the “apoptotic rate (apoptotic cells, caspase-3 substrate)” value (MDA-MB-231 cells [2]) was ~ 30% and the “disruption of the vascular (tubular) network” value (“disruption of the vascular” below) (HMEC-1 cells [3]; 0.01 μM) was “antivascular effect was still evident”. The “disruption of the vascular” value (HMEC-1 cells [3]; 0.1 μM) was “nearly completely abrogated the vascular network”, the “lowest concentration inhibiting wound closure” value (HMEC-1 cells [4]) was 0.06 µM and the “uptake of PI (toxicity)” value (HMEC-1 cells [4]) was “No increased uptake of PI”.
`CC(Nc1cccc2cc(COCCCO)oc12)=C1C(=O)CC(c2ccccc2)CC1=O` (stereo not drawn) [Compound 28, 2-(1-((2-((3-Hydroxypropoxy)methyl)benzofuran-7-yl)amino)ethylidene)-5-phenylcyclohexane-1,3-dione] was tested, and the IC50 (MDA-MB-231 cells [1]) was 12 ± 5 nM, the IC50 (CEM cells) was 51 ± 18 nM and the IC50 (HeLa cells) was 34 ± 3 nM. For the same molecule, the IC50 (A2780AD cells) was 76 ± 15 nM, the “apoptotic rate (apoptotic cells, caspase-3 substrate)” value (MDA-MB-231 cells [2]) was roughly 40% and the “disruption of the vascular” value (HMEC-1 cells [3]; 0.01 μM) was “antivascular effect was still evident”. The “disruption of the vascular” value (HMEC-1 cells [3]; 0.1 μM) was “nearly completely abrogated the vascular network”, the “lowest concentration inhibiting wound closure” value (HMEC-1 cells [4]) was 0.06 µM and the “uptake of PI (toxicity)” value (HMEC-1 cells [4]) was “No increased uptake of PI”.
